21 compounds from patent publication US11084818B2 (HEPO PHARMACEUTICAL CO., LTD., priority 2016, dated 2021) can be followed below.

In one test the target is T1, hTLR7 (Homo sapiens, UniProt Q9NYK1).
T1 construct: host or cells: HEK-Blue hTLR7 (HEK293-derived reporter line)
T1 sequence (Q9NYK1 27-1049): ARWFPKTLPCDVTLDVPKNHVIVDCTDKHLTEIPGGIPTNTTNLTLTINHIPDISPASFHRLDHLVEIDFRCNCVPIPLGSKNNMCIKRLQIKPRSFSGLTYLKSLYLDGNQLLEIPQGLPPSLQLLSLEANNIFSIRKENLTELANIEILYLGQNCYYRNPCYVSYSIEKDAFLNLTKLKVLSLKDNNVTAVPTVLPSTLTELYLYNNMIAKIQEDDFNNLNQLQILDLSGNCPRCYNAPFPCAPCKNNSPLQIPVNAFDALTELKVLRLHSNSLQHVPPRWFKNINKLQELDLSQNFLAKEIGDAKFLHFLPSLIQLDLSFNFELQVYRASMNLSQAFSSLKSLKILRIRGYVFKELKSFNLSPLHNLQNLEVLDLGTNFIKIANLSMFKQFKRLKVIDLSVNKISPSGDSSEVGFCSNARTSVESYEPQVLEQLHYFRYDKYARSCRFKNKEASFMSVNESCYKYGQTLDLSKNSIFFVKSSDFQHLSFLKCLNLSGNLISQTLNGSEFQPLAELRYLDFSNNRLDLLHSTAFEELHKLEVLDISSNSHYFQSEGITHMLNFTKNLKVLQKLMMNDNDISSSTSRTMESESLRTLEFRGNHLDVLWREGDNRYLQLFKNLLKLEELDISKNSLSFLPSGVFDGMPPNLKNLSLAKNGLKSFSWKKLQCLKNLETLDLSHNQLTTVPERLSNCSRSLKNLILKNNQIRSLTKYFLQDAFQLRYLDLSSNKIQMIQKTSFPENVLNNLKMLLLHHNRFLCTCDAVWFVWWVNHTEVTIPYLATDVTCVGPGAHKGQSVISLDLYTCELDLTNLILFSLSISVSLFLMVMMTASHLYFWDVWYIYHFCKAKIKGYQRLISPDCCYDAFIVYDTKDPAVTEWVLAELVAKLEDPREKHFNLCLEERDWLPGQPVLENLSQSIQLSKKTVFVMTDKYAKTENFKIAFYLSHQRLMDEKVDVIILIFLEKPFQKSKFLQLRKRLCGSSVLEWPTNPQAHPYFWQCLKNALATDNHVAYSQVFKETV
The experiment in a line: Activation activity test of hTLR7 (HEK-Blue hTLR7 cells, QUANTI-Blue OD650). The settings on record: 24 hours incubation, read-out: TLR7 (EC50). The format is cell-based. Here is the method:
(§1) Effect Example 1: Activation Activity Test of hTLR7 and hTLR8
(§2) Cell lines: HEK-Blue™ hTLR7 and HEK-Blue™ hTLR8 (InvivoGen Co.)
(§3) Primary reagents: QUANTI-Blue™ (InvivoGen) and ATPlite 1 Step (PerkinElmer)
(§4) Primary instruments: Automatic Liquid Handling Workstation (Labcyte, Model: Echo), Cell Counter (Countstar, IC1000) and Multifunctional Enzyme Marker (Molecular Device, Flexstation III).
(§5) 2.1 The tested compounds were formulated into a 60 mM concentrated stock solution in DMSO and stored in a nitrogen cabinet.
(§6) 2.3 The T150 cultured cells were taken out from the CO2 incubator and the cell culture supernatant was discarded. The cells were washed with PBS once, followed by addition of about 10 mL of the culture solution. The cells were dissociated by patting the cell culture flask, and gently blown to even by a pipette.
(§7) The cells were counted, and the cell suspension was adjusted to 200,000 cells/mL by the culture solution. Thereafter, 200 μL of diluted cells was added to each well in a 96-well plate containing the compound (40,000 cells/well).
(§8) 2.4 The compounds and cells were incubated in a 5% CO2 incubator at 37° C. for 24 hours.
(§9) 2.5 Compound activity assay: 20 μl of the cell supernatant of each well after induction was added to a cell culture plate containing 180 μL of reagent QUANTI-Blue™, and incubated at 37° C. for 1.5 hours. Thereafter, the optical density absorption (OD650) of each well at 650 nm was measured using a Multifunctional Enzyme Marker: Flexstation III.
(§10) 2.6 Compound Activity: OD650 values were analyzed using GraphPad Prism software and the dose-response curves for the compound were fitted to calculate the EC50 values of the compound.

The target in another test is T2, hTLR8 (Homo sapiens, UniProt Q9NR97).
T2 construct: host or cells: HEK-Blue hTLR8 (HEK293-derived reporter line)
T2 sequence (Q9NR97 27-1041): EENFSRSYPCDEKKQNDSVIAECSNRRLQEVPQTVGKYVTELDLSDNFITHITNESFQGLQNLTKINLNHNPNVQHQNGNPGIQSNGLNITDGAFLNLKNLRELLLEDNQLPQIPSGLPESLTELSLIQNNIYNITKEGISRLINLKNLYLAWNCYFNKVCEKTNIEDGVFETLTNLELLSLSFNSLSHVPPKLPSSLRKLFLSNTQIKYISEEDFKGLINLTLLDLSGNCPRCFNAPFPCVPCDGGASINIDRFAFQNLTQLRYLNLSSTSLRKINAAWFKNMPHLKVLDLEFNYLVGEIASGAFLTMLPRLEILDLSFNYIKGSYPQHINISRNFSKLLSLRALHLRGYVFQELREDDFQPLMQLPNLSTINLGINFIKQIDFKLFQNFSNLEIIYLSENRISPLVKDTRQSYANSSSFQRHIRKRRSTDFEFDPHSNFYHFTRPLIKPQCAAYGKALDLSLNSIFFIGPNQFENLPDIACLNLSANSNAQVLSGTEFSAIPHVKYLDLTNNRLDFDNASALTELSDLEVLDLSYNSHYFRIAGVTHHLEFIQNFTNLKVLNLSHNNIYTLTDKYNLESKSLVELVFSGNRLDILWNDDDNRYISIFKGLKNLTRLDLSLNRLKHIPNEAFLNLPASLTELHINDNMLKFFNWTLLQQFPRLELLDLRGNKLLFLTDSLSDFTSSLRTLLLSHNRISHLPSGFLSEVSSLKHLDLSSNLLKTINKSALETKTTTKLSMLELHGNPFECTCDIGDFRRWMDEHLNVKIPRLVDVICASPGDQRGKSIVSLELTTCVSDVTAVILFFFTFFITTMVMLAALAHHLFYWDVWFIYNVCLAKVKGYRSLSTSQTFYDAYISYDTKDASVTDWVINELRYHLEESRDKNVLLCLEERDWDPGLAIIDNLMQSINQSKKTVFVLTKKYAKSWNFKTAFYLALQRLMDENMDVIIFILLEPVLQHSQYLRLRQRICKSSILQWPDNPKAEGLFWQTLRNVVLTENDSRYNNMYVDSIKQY
Nature of the test: Activation activity test of hTLR8 (HEK-Blue hTLR8 cells, QUANTI-Blue OD650). The format is cell-based. Particulars: for EC50: HEK-Blue hTLR8 cells, 24 hours incubation, read-out: TLR8 (EC50). Here is the method: as §1, §2, §3, §4, §5, §6, §7, §8, §9, §10

By EC50 is commonly meant the concentration needed to bring the measured effect to its halfway point. Turning to `COCCOc1ncc2[nH]c(=O)n(Cc3ccc(CN4CCCC4)cc3)c2n1` [Example 1, 2-(2-methoxyethoxy)-9-(4-(pyrrolidin-1-ylmethyl)benzyl)-7,9-dihydro-8H-purin-8-one], the EC50 was 1 to 10 µM on hTLR7 and above 100 µM on hTLR8.
The matching figures for `COCCOc1ncc2[nH]c(=O)n(Cc3ccc(CN4CCC4)cc3)c2n1` [Example 2, 2-(2-methoxyethoxy)-9-(4-(azetidin-1-ylmethyl)benzyl)-7,9-dihydro-8H-purin-8-one]: 10 to 100 µM and above 100 µM.
As for `COCCOc1ncc2[nH]c(=O)n(Cc3ccc(CN4CCCCC4)cc3)c2n1` [Example 3, 2-(2-methoxyethoxy)-9-(4-(piperidin-1-ylmethyl)benzyl)-7,9-dihydro-8H-purin-8-one], the EC50 on hTLR7 was 1 to 10 µM; at hTLR8, above 100 µM.
The matching figures for `COCCOc1ncc2[nH]c(=O)n(Cc3ccc(CN4CCCCCC4)cc3)c2n1` [Example 4, 2-(2-methoxyethoxy)-9-(4-(azepan-1-ylmethyl)benzyl)-7,9-dihydro-8H-purin-8-one]: 1 to 10 µM and above 100 µM.
Take `COCCOc1ncc2[nH]c(=O)n(Cc3ccc(CN4CC[C@@H](F)C4)cc3)c2n1` [Example 5, (R)-9-(4-((3-fluoropyrrolidin-1-yl)methyl)benzyl)-2-(2-methoxyethoxy)-7,9-dihydro-8H-purin-8-one]: the EC50 at hTLR7 is 1 to 10 µM; on hTLR8 it was above 100 µM.
On the same counts, the results for `COCCOc1ncc2[nH]c(=O)n(Cc3ccc(CN4CC[C@@H](O)C4)cc3)c2n1` [Example 6, (R)-9-(4-((3-hydroxypyrrolidin-1-yl)methyl)benzyl)-2-(2-methoxyethoxy)-7,9-dihydro-8H-purin-8-one] are 10 to 100 µM and above 100 µM.
In the case of `COCCOc1ncc2[nH]c(=O)n(Cc3ccc(CN4CCC[C@@H]4C(=O)OC)cc3)c2n1` [Example 7, methyl (4-((2-(2-methoxyethoxy)-8-oxo-7,8-dihydro-9H-purin-9-yl)methyl)benzyl)-D-pyrrolidine-2-carboxylate], the EC50 on hTLR7 was 10 to 100 µM; at hTLR8, above 100 µM.
With `COCCOc1ncc2[nH]c(=O)n(Cc3ccc(CN4CCC[C@H]4C(=O)OC)cc3)c2n1` [Example 8, methyl (4-((2-(2-methoxyethoxy)-8-oxo-7,8-dihydro-9H-purin-9-yl)methyl)benzyl)-L-pyrrolidine-2-carboxylate], the EC50 at hTLR7 was 10 to 100 µM; on hTLR8, above 100 µM.
The matching figures for `COCCOc1ncc2[nH]c(=O)n(Cc3ccc(CN(C)C)cc3)c2n1` [Example 9, 9-(4-((dimethylamino)methyl)benzyl)-2-(2-methoxyethoxy)-7,9-dihydro-8H-purin-8-one]: 1 to 10 µM and above 100 µM.
The matching figures for `CCN(CC)Cc1ccc(Cn2c(=O)[nH]c3cnc(OCCOC)nc32)cc1` [Example 10]: 1 to 10 µM and above 100 µM.
Consider `COCCOc1ncc2[nH]c(=O)n(Cc3ccc(CN4CCC5(CC4)COC5)cc3)c2n1` [Example 11, 9-(4-((2-oxa-7-azaspiro[3.5]nonan-7-yl)methyl)benzyl)-2-(2-methoxyethoxy)-7,9-dihydro-8H-purin-8-one], for which the EC50 on hTLR7 was 1 to 10 µM; on hTLR8 it was above 100 µM.
With `COCCOc1ncc2[nH]c(=O)n(Cc3ccc(CN4C[C@H]5CN(C)C[C@H]5C4)cc3)c2n1` [Example 12], the figures for the EC50 at hTLR7 and on hTLR8 were 1 to 10 µM and above 100 µM, respectively.
On the same counts, the results for `COCCOc1ncc2[nH]c(=O)n(Cc3ccc(CN4CC5CCC4C5)cc3)c2n1` (centres unmarked) [Example 13, 2-(2-methoxyethoxy)-9-(4-((2-aza-bicyclo[2,2,1]heptan-2-yl)methyl)benzyl)-7,9-dihydro-8H-purin-8-one] are 1 to 10 µM and above 100 µM.
The matching figures for `COCCOc1ncc2[nH]c(=O)n(Cc3ccc(C(C)N4CCCC4)cc3)c2n1` (centres unmarked) [Example 14, 2-(2-methoxyethoxy)-9-(4-(1-(pyrrolidin-1-yl)ethyl)benzyl)-7,9-dihydro-8H-purin-8-one]: 0.001 to 1 µM and above 100 µM.
On the same counts, the results for `COCCOc1ncc2[nH]c(=O)n(Cc3ccc(C(C)N4CCCCC4)cc3)c2n1` (centres unmarked) [Example 15, 2-(2-methoxyethoxy)-9-(4-(1-(piperidin-1-yl)ethyl)benzyl)-7,9-dihydro-8H-purin-8-one] are 0.001 to 1 µM and above 100 µM.
On to `COCCOc1ncc2[nH]c(=O)n(Cc3ccc(C(C)N4CCCCCC4)cc3)c2n1` (centres unmarked) [Example 16, 2-(2-methoxyethoxy)-9-(4-(1-(azacycloheptane-1-yl)ethyl)benzyl)-7,9-dihydro-8H-purin-8-one], for which the figures for the EC50 on hTLR7 and on hTLR8 were 0.001 to 1 µM and above 100 µM, respectively.
As for `CCC(c1ccc(Cn2c(=O)[nH]c3cnc(OCCOC)nc32)cc1)N1CCCC1` (centres unmarked) [Example 17], the values for the EC50 on hTLR7 and at hTLR8 were 1 to 10 µM and above 100 µM, respectively.
As to `COCCOc1ncc2[nH]c(=O)n(Cc3cccc(CN4CCCC4)c3)c2n1` [Example 18], the EC50 at hTLR7 is 1 to 10 µM; at hTLR8 it was above 100 µM.
The matching figures for `COCCOc1ncc2[nH]c(=O)n(Cc3cccc(CN4CCC4)c3)c2n1` [Example 19, 2-(2-methoxyethoxy)-9-(3-(azetidin-1-ylmethyl)benzyl)-7,9-dihydro-8H-purin-8-one]: 1 to 10 µM and above 100 µM.
For the compound `COCCOc1ncc2[nH]c(=O)n(Cc3cccc(CN4CCCCC4)c3)c2n1` [Example 20, 2-(2-methoxyethoxy)-9-(3-(piperidin-1-ylmethyl)benzyl)-7,9-dihydro-8H-purin-8-one], the figures for the EC50 at hTLR7 and at hTLR8 were 10 to 100 µM and above 100 µM, respectively.
Consider `CCOCc1nc2c(N)nc3ccccc3c2n1CC(C)(C)O` [Example R848, reference compound], for which the “agonistic activity against TLR8” value on hTLR8 (in words, from Table 1) is on record as “strong agonistic activity”.
